For test [1], the system named is skeletal muscle. The experiment in a line: Steady-state force-[Ca2+]i relations of skeletal muscle. In kind it is cell-based, rat. The source says:
(§1) FIG. 6. MLC1 Cys81 necessary for increase in Fmax induced by treatment with HNO donors. (a) Sequence alignment comparing isoforms of rat cardiac (SEQ ID NO:16) and skeletal MLC1 (SEQ ID NO:17) in the region surrounding cardiac Cys81. (b) Steady-state force-[Ca^2+]i relations in control (o) versus NCA-treated (•) from cardiac or skeletal trabeculae indicating loss of increase in maximum force with loss of Cys81 in skeletal isoform with NCA (n=5, each group). (c) 2D Gel shift assay (non-reduced, NR and reduced, DTT) using 10 μg of skeletal or cardiac myofibrils indicating loss of higher molecular weight forms of MLC1 in skeletal HNO treated preparations while maintaining higher molecular weight form of TM (n=3).
To determine if MLC1 Cys81 is involved in the increased maximum force production, the effect of HNO donors was investigated in skeletal muscle preparations. Skeletal muscle isoforms of myofilament proteins contain all of the potential target Cys except for MLC1, which lacks the candidate site Cys81 providing a natural mutant sequence (FIG. 6A). […] The same insensitivity of Fmax to AS was also observed in skinned skeletal muscles (data not shown).

Test [2] deals with rat cardiac muscle. The test is described as follows: Force and [Ca2+]i measurements in cardiac trabeculae. In kind it is cell-based. The method, then:
Force and [Ca^2+]i Measurements in Cardiac Trabeculae.
Rat hearts were exposed via midsternotomy after the animals were anesthetized with intraperitoneal injection of pentobarbital (100 mg/kg), and were then rapidly excised and aorta cannulated. The hearts were perfused retrogradely (˜15 ml/min) with high K^+ Krebs-Henseleit (H-K) solution equilibrated with 95% O2 and 5% CO2. Trabeculae were quickly dissected from the right ventricles of the hearts and mounted between a force transducer and a motor arm. The muscles were superfused with K-H solution at a rate of ˜10 ml/min and stimulated at 0.5 Hz. Force was measured using a force transducer system (SI, Germany) and expressed in mN/mm^2. Sarcomere length was measured by laser diffraction. Fura-2 potassium salt was microinjected iontophoretically into one cell and allowed to spread throughout the whole muscle (via gap junctions). The epifluorescence of fura-2 was measured by exciting at 380 and 340 nm. The fluorescent light was collected at 510 nm by a photomultiplier tube (R1527, Hamamatsu). [Ca^2+]i was given by (after subtraction of the autofluorescence): [Ca^2+]i=K′d(R-Rmin)/(Rmax-R), where R is the observed ratio of fluorescence (340/380), K′d is the apparent dissociation constant, Rmax is the ratio of 340 nm/380 nm at saturating [Ca^2+], and Rmin is the ratio of 340 nm/380 nm at zero [Ca^2+]. The values of K′d, Rmax, and Rmin were determined by in vivo calibrations. Tetanization of the trabecula was achieved by addition of ryanodine (1.0 μmol/L) and by increasing the stimulus rate to 10 Hz briefly (˜3 sec) to obtain steady-state force-[Ca^2+] relations. Different levels of tetanized force will be obtained by increasing [Ca^2+] in the perfusate (up to 20-25 mmol/L). The data will be fitted with the Hill equation: F=Fmax[Ca^2+]in/(K1/2n+[Ca^2+]in), where Fmax is the maximal force. K1/2 is [Ca^2+]i at half Fmax, and n is the Hill coefficient.
1-nitrosocyclohexylacetate (NCA) is a new and mechanistically unique HNO donor that has been recently synthesized.

The target in test [3] is T1, MLC1 (Rattus norvegicus, UniProt P02600).
T1 construct: using 10 μg of skeletal or cardiac myofibrils; from tissue; host or cells: skeletal muscle myofibrils
The experiment in a line: 2D gel shift western blot of skeletal myofibrils. Conditions: skeletal samples. In kind it is biochemical.
Description: as §1
Gel shift assay. 10 μg of rat myofibrils/treatment were diluted to 0.5 μg/μl in HEN including 0.1% (w/v) SDS and exposed to a treatment for 20 min at 37° C. Samples were diluted to 0.1 ug/ul in 1×LSD sample buffer, treated with 0, 5 or 100 mM DTT and separated by SDS PAGE. Proteins were silver stained or transferred to nitrocellulose and immunoblotted with primary antibodies for tropomyosin sarcomeric (CH1, Sigma-Aldrich Co., St. Louis, Mo., USA), actin (AC-40, Sigma-Aldrich Co., St. Louis, Mo., USA), myosin light chain 1 (MLM527, Abcam, Cambridge, Mass., USA) or myosin heavy chain (3-48, Abcam, Cambridge, Mass., USA). […]
On the technique in general: In EMSA bound probe runs differently from free probe, usually more slowly.

Setting [4] is: 20˜100 μmol/L, 0.5 mmol/L [Ca2+]o.
[5] abbreviates: NCA 100 μmol/L, isolated cardiac muscle.
Setting [6] is: in the presence of NCA, varied external Ca2+.

Each structure is given as a SMILES string.

This is an account of results in patent US20120231482A1, “METHOD, KIT OR DIAGNOSTIC FOR THE DETECTION OF REAGENTS WHICH INDUCE ALTERED CONTRACTILITY” (THE JOHNS HOPKINS UNIVERSITY, priority 2009, published 2012).

T1 sequence (P02600 whole entry): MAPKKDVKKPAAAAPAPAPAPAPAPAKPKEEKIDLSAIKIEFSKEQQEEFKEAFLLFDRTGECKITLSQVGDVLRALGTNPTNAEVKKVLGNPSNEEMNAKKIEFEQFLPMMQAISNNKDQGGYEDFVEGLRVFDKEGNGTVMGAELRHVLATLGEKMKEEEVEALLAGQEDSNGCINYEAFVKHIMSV

As for `[Na+].[Na+].[O-][N+]([O-])=NO` [AS, Angeli's Salt], the Fmax result in test [1] (skinned skeletal muscles, AS, data not shown) is given as “insensitivity”.

On to `CC(=O)OC1(N=O)CCCCC1` [NCA, 1-nitrosocyclohexylacetate], for which, in test [2] (setting [4]), the diastolic force entry is listed as “no changes” and the force development result is on record as “increases force development in a dose dependent manner”. Moreover, in test [2] (setting [5]), the “Ca2+ transient” value came out at 0.39 ± 0.08 µmol/L and the force turned out to be 32.3 ± 4.8 mN/mm². Moreover, in test [2] (dose-response), the “diastolic Ca2+” value was “increased only at high doses”. In test [2] (setting [6]), the “amplitude of intracellular Ca2+ transients” value is “not different from control” and the “systolic force at any given external Ca2+” value is reported as “remained significantly higher”. The Force-frequency relationship result in test [2] (without rising [Ca2+]i) was “enhanced”. In test [1] (skeletal muscle, NCA 25 μmol/L), the Ca50 is 0.8 ± 0.1 µM, the Fmax is given as 33±3.8 mN/mm^2 and the Hill was found to be 4.36±0.81. Besides, the “higher molecular weight forms of MLC1” value in test [3] was “absence of higher molecular weight forms of MLC1”.
